Assay results: publication PMC9090415, “Discovery of small molecule inhibitors of Plasmodium falciparum apicoplast DNA polymerase” (Journal of Enzyme Inhibition and Medicinal Chemistry, 2022)

Target: P. falciparum apicoplast DNA polymerase (Pf-apPOL) (Plasmodium falciparum, UniProt Q8ILY1)
Experiment: Fluorescence-based high-throughput DNA polymerase assay (molecular beacon), primary screen and dose-response;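 on % inhibition ApPOL 90': test concentration in µM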;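 on % inhibition Apol 40': compound concentration given in µM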;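 on % inhibition apPOL 180': test concentration in µM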
Format: biochemical
Settings: for DNA Pol: 90 min, 10 µM
Procedure, shortened: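 Single-point screening used 10 µM compound with 20 nM polymerase, 20 nM hairpin substrate and 6 µM dNTPs for 90 min at 25 °C. Confirmatory titrations (2.5–80 µM) followed fluorescence at three times, and IC50 was derived from a fit including a cooperativity term n.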

[1] = 'DNA Pol' of the 186 hits list (primary screen value)
[2] = first dose-response set, concentration 10

Sequence of P. falciparum apicoplast DNA polymerase (Pf-apPOL) (Q8ILY1 entry or part of it): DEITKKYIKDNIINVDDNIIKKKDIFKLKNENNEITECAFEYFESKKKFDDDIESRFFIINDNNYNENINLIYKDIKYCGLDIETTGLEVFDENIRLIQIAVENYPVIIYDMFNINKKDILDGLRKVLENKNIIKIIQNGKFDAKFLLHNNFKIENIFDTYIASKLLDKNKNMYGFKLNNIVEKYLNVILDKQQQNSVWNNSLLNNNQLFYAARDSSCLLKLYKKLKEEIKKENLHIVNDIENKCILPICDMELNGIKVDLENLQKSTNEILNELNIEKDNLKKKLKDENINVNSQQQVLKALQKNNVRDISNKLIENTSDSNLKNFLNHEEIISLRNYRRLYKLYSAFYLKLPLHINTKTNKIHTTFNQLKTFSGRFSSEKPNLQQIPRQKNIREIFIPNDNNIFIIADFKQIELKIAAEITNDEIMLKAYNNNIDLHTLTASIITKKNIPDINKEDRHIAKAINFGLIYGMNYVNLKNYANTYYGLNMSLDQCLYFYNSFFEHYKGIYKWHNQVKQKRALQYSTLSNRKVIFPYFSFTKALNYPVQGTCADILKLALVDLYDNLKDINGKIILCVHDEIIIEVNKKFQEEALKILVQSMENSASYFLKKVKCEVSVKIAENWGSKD

COc1ccc(C(=O)N2CCc3c(nc4cc(-c5ccccc5Cl)[nH]n4c3=O)C2)cn1 [Molecule 26, COc1ccc(cn1)C(=O)N1CCc2c(C1)nc1n(c2=O)[nH]c(c1)c1ccccc1Cl]
DNA Pol [1]: 36 | DNA Pol (DNA Pol (primary screen value)): 36 | % inhibition Apo pol 10' (DRC-1, concentration 2.5): 0.687% | % inhibition Apo pol 10' (DRC-1, concentration 5): 20% | % inhibition Apo pol 10' (DRC-1, concentration 10): 48% | % inhibition Apo pol 10' (DRC-1, concentration 20): 85% | % inhibition Apo pol 10' (DRC-1, concentration 40): 91% | % inhibition Apo pol 10' (DRC-1, concentration 80): 87% | % inhibition Apol 90' (DRC-1, concentration 2.5): -2.83% | % inhibition Apol 90' (DRC-1, concentration 5): 11% | % inhibition Apol 90' (DRC-1, concentration 10): 33% | % inhibition Apol 90' (DRC-1, concentration 20): 74% | % inhibition Apol 90' (DRC-1, concentration 40): 82% | % inhibition Apol 90' (DRC-1, concentration 80): 82% | % inhibition apPOL 180' (DRC-1, concentration 2.5): -5.33% | % inhibition apPOL 180' (DRC-1, concentration 5): 3.47% | % inhibition apPOL 180' (DRC-1, concentration 10): 20% | % inhibition apPOL 180' (DRC-1, concentration 20): 60% | % inhibition apPOL 180' (DRC-1, concentration 40): 70% | % inhibition apPOL 180' (DRC-1, concentration 80): 71% | % inhibition Apo pol 5' (DRC-2, concentration 2.5): 7% | % inhibition Apo pol 5' (DRC-2, concentration 5): 7% | % inhibition Apo pol 5' (DRC-2, concentration 10): 28% | % inhibition Apo pol 5' (DRC-2, concentration 20): 47% | % inhibition Apo pol 5' (DRC-2, concentration 40): 54% | % inhibition Apo pol 5' (DRC-2, concentration 80): 47% | % inhibition Apol 40' (DRC-2, concentration 2.5): 6.48% | % inhibition Apol 40' (DRC-2, concentration 5): 6.59% | % inhibition Apol 40' (DRC-2, concentration 10): 30% | % inhibition Apol 40' (DRC-2, concentration 20): 56% | % inhibition Apol 40' (DRC-2, concentration 40): 64% | % inhibition Apol 40' (DRC-2, concentration 80): 62% | % inhibition ApPOL 90' (DRC-2, concentration 2.5): 6% | % inhibition ApPOL 90' (DRC-2, concentration 5): 4.56% | % inhibition ApPOL 90' (DRC-2, concentration 10): 28% | % inhibition ApPOL 90' (DRC-2, concentration 20): 56% | % inhibition ApPOL 90' (DRC-2, concentration 40): 63% | % inhibition ApPOL 90' (DRC-2, concentration 80): 63% | % inhibition apPOL 180' (DRC-2, concentration 2.5): 3.22% | % inhibition apPOL 180' (DRC-2, concentration 5): 3% | % inhibition apPOL 180' (DRC-2, concentration 10): 20% | % inhibition apPOL 180' (DRC-2, concentration 20): 48% | % inhibition apPOL 180' (DRC-2, concentration 40): 55% | % inhibition apPOL 180' (DRC-2, concentration 80): 57% | % inhibition Apo pol 10' (first dose-response set, concentration 5): 20% | % inhibition Apo pol 10' [2]: 48% | % inhibition Apol 90' (first dose-response set, concentration 40): 82% | % inhibition Apol 90' (first dose-response set, concentration 80): 82% | % inhibition apPOL 180' [2]: 20%

O=C1N=C(Nc2cccc(Cl)c2Cl)S/C1=C\c1ccco1 [Molecule 3, O=C1N=C(S/C/1=C\c1ccco1)Nc1cccc(c1Cl)Cl]
DNA Pol [1]: 74 | DNA Pol (DNA Pol (primary screen value)): 74 | % inhibition Apo pol 10' (DRC-1, concentration 2.5): 26.4621% | % inhibition Apo pol 10' (DRC-1, concentration 5): 50.3585% | % inhibition Apo pol 10' (DRC-1, concentration 10): 71.7156% | % inhibition Apo pol 10' (DRC-1, concentration 20): 70.1447% | % inhibition Apo pol 10' (DRC-1, concentration 40): 64.4851% | % inhibition Apo pol 10' (DRC-1, concentration 80): 49.9988% | % inhibition Apol 90' (DRC-1, concentration 2.5): 14.8677% | % inhibition Apol 90' (DRC-1, concentration 5): 38.7366% | % inhibition Apol 90' (DRC-1, concentration 10): 64.2373% | % inhibition Apol 90' (DRC-1, concentration 20): 68.803% | % inhibition Apol 90' (DRC-1, concentration 40): 72.5757% | % inhibition Apol 90' (DRC-1, concentration 80): 68.4026% | % inhibition apPOL 180' (DRC-1, concentration 2.5): 3.99% | % inhibition apPOL 180' (DRC-1, concentration 5): 24.8255% | % inhibition apPOL 180' (DRC-1, concentration 10): 52.4106% | % inhibition apPOL 180' (DRC-1, concentration 20): 60.3634% | % inhibition apPOL 180' (DRC-1, concentration 40): 70.3618% | % inhibition apPOL 180' (DRC-1, concentration 80): 71.4479% | % inhibition Apo pol 5' (DRC-2, concentration 2.5): 35% | % inhibition Apo pol 5' (DRC-2, concentration 5): 38% | % inhibition Apo pol 5' (DRC-2, concentration 10): 42% | % inhibition Apo pol 5' (DRC-2, concentration 20): 31% | % inhibition Apo pol 5' (DRC-2, concentration 40): 11% | % inhibition Apo pol 5' (DRC-2, concentration 80): -21% | % inhibition Apol 40' (DRC-2, concentration 2.5): 37% | % inhibition Apol 40' (DRC-2, concentration 5): 44% | % inhibition Apol 40' (DRC-2, concentration 10): 58% | % inhibition Apol 40' (DRC-2, concentration 20): 56% | % inhibition Apol 40' (DRC-2, concentration 40): 44% | % inhibition Apol 40' (DRC-2, concentration 80): 25% | % inhibition ApPOL 90' (DRC-2, concentration 2.5): 34% | % inhibition ApPOL 90' (DRC-2, concentration 5): 42% | % inhibition ApPOL 90' (DRC-2, concentration 10): 59% | % inhibition ApPOL 90' (DRC-2, concentration 20): 60% | % inhibition ApPOL 90' (DRC-2, concentration 40): 53% | % inhibition ApPOL 90' (DRC-2, concentration 80): 40% | % inhibition apPOL 180' (DRC-2, concentration 2.5): 22% | % inhibition apPOL 180' (DRC-2, concentration 5): 31% | % inhibition apPOL 180' (DRC-2, concentration 10): 54% | % inhibition apPOL 180' (DRC-2, concentration 20): 62% | % inhibition apPOL 180' (DRC-2, concentration 40): 60% | % inhibition apPOL 180' (DRC-2, concentration 80): 53%
